Reference: patent publication US20160374370A1, “BEVERAGE COMPRISING FERROUS PICOLINATE” (NESTEC S.A., priority 2013, published 2016)

Assay: Colour change in iron fortified strawberry fermented milk beverages (CIELAB colorimetry)
Assay type: physicochemical
Conditions: for ΔEab* on addition / ΔEab* after heat treatment: colour difference vs beverage with no iron salts, approx. 2.1 mg iron per 100 g; for ΔEab* on addition: fermented milk beverage containing 2.1% strawberry, stirred under argon 20 minutes; for ΔEab* after heat treatment: heat treated at 95° C. for 2 minutes, 2.1% strawberry fermented milk beverage
Protocol: Ferrous picolinate was prepared according to the procedure of U.S. Pat. No. 4,315,927 Example 3. A fermented milk beverage containing 2.1% strawberry was iron fortified by the addition of ferrous sulphate (Dr Paul Lohmann™) (Sample A) or ferrous picolinate (Sample B). The amount of the ferrous salts were chosen to provide approximately 2.1 mg iron per 100 g fermented milk beverage. Each ferrous salt was added to the fermented milk beverage and stirred under argon for 20 minutes. A further sample without iron fortification was also prepared in the same manner. Colour measurements were performed in 1×1 cm polystyrene cuvettes using an X-Rite ColorEye 7000A colorimeter. The colorimeter was set up with a D65 light source, 10 degree observer angle and with specular component included. The colour difference between the beverage with no iron salts and the iron fortified beverages was measured for each ferrous salt and expressed as ΔEab* using the CIELAB colour scale.
The fermented milks were then heat treated at 95° C. for 2 minutes. Colour measurements were performed in the same manner as before. The colour difference between the beverage with no iron salts and the iron fortified beverages was measured for each ferrous salt and expressed as ΔEab* using the CIELAB colour scale.

For `O=S(=O)([O-])[O-].[Fe+2]` [FeSO4 × H20, ferrous sulphate, reference compound], the “ΔEab* on addition” value was 0.84 and the “ΔEab* after heat treatment” value was 2.80.

In the case of ferrous picolinate, the “colour compared with the beverage with no added iron” value (both after simple addition of the salts and after heat treatment, compared with ferrous sulphate) is reported as “closer in colour to the beverage with no added iron than the beverage fortified with ferrous sulphate”, the “ΔEab* on addition” value is reported as 0.36 and the “ΔEab* after heat treatment” value is reported as 1.66.
